According to the METLIN SMRT retention time set (Domingo-Almenara et al. 2019):

Experiment: gradient 5% acetonitrile 3 min, to 50% in 2 min, to 85% in 15 min, held 3 min, 100 µL/min
Conditions: column: Zorbax Extend-C18 2.1 x 50 mm; eluents: water / acetonitrile, 0.1% formic acid
Outline: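 Retention times come from adduct peaks that were picked computationally and then checked by hand. The standards, pure and pooled in mixtures of ~100 molecules, were run on a Zorbax Extend-C18 column (2.1 × 50 mm, 1.8 μm) at 100 μL/min with water and acetonitrile, each with 0.1% formic acid. Detection was by quadrupole time-of-flight mass spectrometry in positive and negative ionization mode, with a dead volume of 40 μL and a dwell volume of 900 μL.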

Row | SMILES | RP-LC retention time [s]
1 | CCc1ccc(-n2c(CN3CCN(C(=O)NC(C)(C)C)CC3)nc3cccnc32)cc1 | 687
2 | O=C(CN1CCC2(CC1)N=C(c1ccc(F)cc1)C(=O)N2)Nc1ccc(F)cc1F | 666
3 | O=C(CCc1cn(Cc2ccccc2F)c2ccccc12)N1CCN(c2ccccn2)CC1 | 737
4 | Cc1nc(C)c(-c2nnc(NC(=O)c3ccc(F)cc3F)o2)s1 | 663
5 | CCC(C(=O)N1CCN(c2ccccn2)CC1)n1nc(C)c2nn(-c3ccccc3)c(C)c2c1=O (centres undefined) | 669
6 | CCn1c(CCNC(=O)c2ccc(OC)cc2)nc2cccnc21 | 607
7 | Cc1c(S(=O)(=O)NCC(c2cccnc2)c2cn(C)c3ccccc23)cnn1C(F)F (centres undefined) | 698
8 | C#CCOCC1CCCN(S(=O)(=O)Cc2ccccc2)C1 (centres undefined) | 840
9 | COc1ccc2cc(C(=O)N3CCN(c4cc(=O)n(C(C)C)c(=O)n4C(C)C)CC3)[nH]c2c1 | 909
10 | CN1CCCn2cc(S(=O)(=O)Nc3ccc(F)cc3Cl)cc2C1=O | 696
11 | COCCN1CCC2(CC1)CN(Cc1cc(C)ccc1C)Cc1ccccc1O2 | 718
12 | CCOCCCNC(=O)c1c(-c2cccc(Br)c2)noc1C | 869
13 | COC(=O)C1=CN(c2ccc(F)c(F)c2)c2ccc(F)cc2S1(=O)=O | 854
14 | Cc1nn(CC(=O)NCc2ccco2)c(=O)c2nc(-c3ccccc3)sc12 | 782
15 | O=S(=O)(Nc1ccccc1F)c1c[nH]c2ncccc12 | 697
16 | Cc1ccccc1NC(=O)C1CCN(c2nc(C3CCC3)nc3csc(C)c23)CC1 | 757
17 | COc1ccc2c(c1)C1(CCN(C(=O)C(C)(C)C)C1)C(=O)N2C (centres undefined) | 764
18 | Cc1scc2nc(C3CCC3)nc(N3CCC(C(=O)N4CCN(c5ccc(F)cc5)CC4)CC3)c12 | 810
19 | CCCCN1C(=O)CN(S(=O)(=O)c2ccccc2)CC1(C)C(=O)NCc1ccc(F)cc1 (centres undefined) | 945
20 | Fc1ccc(C2Cn3nnc(-c4nc(-c5cccnc5)no4)c3CO2)cc1 (centres undefined) | 896
21 | COc1ccc(Cn2nnc(C(=O)O)c2C)cc1F | 645
22 | CCn1cc(-c2nc(C)c(C(=O)NCc3cccc(F)c3)s2)c2cccnc21 | 947
23 | c1ccc(C2CNCc3ccccc32)cc1 (centres undefined) | 698
24 | COc1ccc(-c2nc(-c3ccc4c(c3)oc(=O)n4C(C)C)no2)cc1OC | 1070
25 | Cc1nn(CC(=O)N2CCN(c3ccccn3)CC2)c(=O)c2nc(-c3ccccc3)sc12 | 632
26 | Cc1nc(C)c(C(=O)Nc2nc(-c3ccc(-c4ccccc4)cc3)cs2)s1 | 1210
27 | CCn1cc(C(=O)NCc2ccccc2C(F)(F)F)c2cccnc21 | 863

Row | SMILES | RP-LC retention time [s]
28 | COc1ccc(N2CCN(C(=O)c3cc(-c4ccncc4)cn3C)CC2)cc1 | 599
29 | Cc1nc(N2CCCC2)c2c(C(=O)Nc3cccc(Cl)c3)c(C)oc2n1 | 852
30 | COc1ccc(-c2nnc3n2CCN(Cc2scnc2C)C3)cc1 | 657
31 | COc1ccc(N2CCN(S(=O)(=O)c3cc(-c4csc(C)n4)sc3C)CC2)cc1 | 1090
32 | CCc1ccccc1NC(=O)c1c(O)c2cccnc2n(-c2ccccc2)c1=O | 1290
33 | CN(Cc1ccco1)C(=O)c1nc2ccccn2c1-c1ccc(F)cc1 | 705
34 | Cc1ccc(C)c(-c2cc3c4nn(CC(=O)N(C)c5ccccc5)c(=O)n4ccn3n2)c1 | 1010
35 | CCCOCCOC(=O)C1=C(C)NC2=C(C(=O)CC(C)(C)C2)C1c1cccc(OC)c1OC (centres undefined) | 875
36 | Cc1ccc(C)c(Cn2nc3c(S(=O)(=O)N4CCCCC4)cccn3c2=O)c1 | 974
37 | Cc1c(C(=O)N2CCSCC2)cnn1-c1cc(-c2nc(C(C)(C)C)no2)ccn1 | 1070
38 | COc1cccc(CNC(=O)CCc2c(-c3ccc(Br)cc3)nc3ccccn23)c1 | 698
39 | O=C(CN1CCN(c2ccccn2)CC1)N1c2ccccc2CCc2ccccc21 | 636
40 | Cc1ccc(CN2CCC(c3nc(-c4cnccn4)n[nH]3)CC2)s1 | 570
41 | O=C(Nc1nccs1)c1ccc(Br)cc1F | 783
42 | Fc1ccc(-c2nc(-c3ccc4nncn4c3)no2)cc1 | 810
43 | Cc1nnc(-c2cn(CC(=O)Nc3ccc(F)cc3F)c3ccccc23)o1 | 747
44 | O=C(CN1C(=O)CCc2cc(Br)ccc21)NCc1cccnc1 | 614
45 | COc1ccc(Cl)cc1N1CC(c2nc(-c3cc(OC)c(OC)c(OC)c3)no2)CC1=O (centres undefined) | 905
46 | Cc1nn(CC(=O)NCC(C)C)c(=O)c2nc(-c3ccccc3)sc12 | 830
47 | O=C(CN1C(=O)CCCc2cc(S(=O)(=O)N3CCCC3)ccc21)Nc1cccc(Cl)c1 | 890
48 | C[C@@H]1O[C@@H](O[C@H]2C[C@@H](O)[C@]3(CO)[C@@H]4C(CC[C@]3(O)C2)[C@@]2(O)CC[C@H](C3COC(=O)C3)[C@@]2(C)C[C@H]4O)[C@H](O)[C@H](O)[C@H]1O (some centres undefined) | 602
49 | CC(C)c1ccc(NC(=O)C2CCN(S(=O)(=O)c3ccc4[nH]c(=O)sc4c3)CC2)cc1 | 913
50 | COc1ccc(NC(=O)Cn2c(=O)n(-c3ccc(C)cc3)c3ncccc32)cc1OC | 802
51 | Cc1ccc(Cn2cc(-c3ccncc3)cc2C(=O)NCc2cccs2)cc1 | 734
52 | COc1ccc(C(=O)Nc2cccn3nc(C(C)C)nc23)cc1 | 873
53 | CCCNC(=O)N1CCCCCC1CN1CCOCC1 (centres undefined) | 580
54 | COCCNC(=O)C1CCC(=O)N(c2ccc(OC)cc2)C1c1ccc(F)cc1 (centres undefined) | 658

The remaining lines, values ahead:

Row | RP-LC retention time [s] | SMILES
55 | 746 | Cc1ccc(Cl)cc1NC(=O)N1C[C@@H](F)C[C@H]1C(=O)N1CCCCC1
56 | 1090 | CCN1C(=O)COc2ccc(-c3noc(C(C)Oc4ccccc4)n3)cc21 (centres undefined)
57 | 624 | CCN(CC)C(=O)N1CC(n2cc(C(=O)N(C)CCOC)nn2)C1
58 | 571 | CC(=O)N[C@@H]1CN(C(=O)c2ccc3c(c2)OCO3)C[C@H]1CO
59 | 1050 | CCN1C(=O)COc2cc(-c3noc(C(=O)NC4CCCCCC4)n3)ccc21
60 | 859 | Cc1oc(-c2ccc(NC(=O)C3CCCC3)cc2)nc1Cn1cccn1
61 | 663 | O=C(C1=NNc2ccc(Cl)cc2S1(=O)=O)N1CCOCC1
62 | 726 | Cn1ncc(N2CCCC(C(=O)NCc3ccc(F)c(Cl)c3)C2)cc1=O (centres undefined)
63 | 1090 | O=C(c1ccc(Cl)s1)N1CC(c2nc(-c3cccc(C(F)(F)F)c3)no2)C1
64 | 716 | COC(=O)c1cnn(-c2ccc(C(=O)NC3CCCC3)cc2)c1N
65 | 864 | O=C(NC1CCCCC1)C1CCCN(C(=O)c2cccc(Cl)c2)C1 (centres undefined)
66 | 802 | Cc1ccc(C(=O)NC2CCN(c3nnc4ccc(C(F)(F)F)cn34)CC2)cc1
67 | 705 | CS(=O)(=O)N[C@H]1C[C@@H]2C[C@H]1CN2C(=O)c1ccccc1C(F)(F)F
68 | 998 | O=C(Nc1cccc(F)c1)N1CCCC1c1nc(-c2ccc(F)cc2F)no1 (centres undefined)
69 | 561 | CCS(=O)(=O)N1CCC(N2C(=O)[C@H](OCCOC)[C@@H]2c2ccncc2)CC1
70 | 828 | Cc1cccc(-c2nnc(CC(=O)NCCC(C)C)o2)c1
71 | 914 | O=C(CN1C(=O)C2CCCCN2c2ccc(C(=O)N3CCCC3)cc21)NCCC1=CCCCC1 (centres undefined)
72 | 581 | O=C1CCN(C(=O)c2cccs2)CCCC(CO)CCN1 (centres undefined)

Row | RP-LC retention time [s] | SMILES
73 | 801 | Cc1cc(C)cc(NC(=O)C2CC(=O)N(c3ccc4oc(C)nc4c3)C2)c1 (centres undefined)
74 | 730 | C=C1C(=O)OCC2C(C(=O)O)=CC3C(C)C(C)=CC123 (centres undefined)
75 | 797 | O=C(Cn1cccc(-c2nc(-c3ccc(F)cc3)no2)c1=O)NC1CCCC1
76 | 747 | COC(=O)C1CCN(C(=O)c2cccnc2-c2nc3ccccc3s2)CC1
77 | 926 | COc1ccc(-c2nc3cnc(Br)cn3c2Nc2ccc3c(c2)OCO3)cc1
78 | 852 | O=C(NC1CCCCCCC1)C1CCN(C(=O)c2ncn3c2COC(c2ccc(F)cc2)C3)CC1 (centres undefined)
79 | 620 | O=C1COc2ccc(S(=O)(=O)N3CCC(C(=O)N4CCOCC4)CC3)cc2N1
80 | 1080 | CCCCN(CCCC)C(=O)C1CCCN1S(=O)(=O)c1cccc2nsnc12 (centres undefined)
81 | 624 | CCCN1CCn2cc(C(=O)NCc3cccc(Br)c3)nc2C1
82 | 721 | CCN1CCN(Cc2ccc(C(=O)NCc3ccccc3C(F)(F)F)cc2)C(=O)C1=O
83 | 710 | COC(=O)c1ccc(C(=O)Nc2nnc(-c3cccs3)o2)cc1
84 | 746 | O=C(c1cnccn1)N1CC(F)(F)C[C@H]1c1nc(C2CC2)no1
85 | 805 | CC(=O)N(CC(=O)N1CCc2sccc2C1COc1ccc(F)cc1)C(C)C (centres undefined)
86 | 639 | CCc1noc(-c2ccc(SCC(=O)N3CCC(C(N)=O)CC3)nc2)n1
87 | 811 | CC(C)(C)NC(=O)N1CCC(CNC(=O)C(=O)Nc2cc(F)ccc2F)CC1
88 | 854 | COc1cccc(S(=O)(=O)N2C[C@@H]3C[C@H]2C[C@@H]3NC(=O)c2cccs2)c1
89 | 678 | CC1CCN(c2cc(-n3cnc(C(=O)NCc4ccco4)c3)ncn2)CC1
